We go through eleven compounds from PubChem BioAssay (NCI).

Test systems include A498 renal; CCRF-CEM leukemia; EKVX NSCLC; HCT-116 colon; MALME-3M melanoma; OVCAR-4 ovarian; SF-268 CNS; SK-MEL-2 melanoma; SW-620 colon; UACC-62 melanoma.
Assay in all cases: NCI tumour cell line growth inhibition, 48 h

The structures appear in SMILES notation.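 Step 1: Grow cells in 96-well plates. Step 2: Expose to compound for 48 hours at 5 concentrations. Step 3: Interpolate endpoints linearly; if unreached, use highest concentration. Here, GI50 denotes the concentration required for 50% inhibition of growth. At the TGI there is no net growth.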 A value given as a limit tells only on which side of the number the result lay.

Turning to `O=C1C(Cl)=C(Cl)C(=O)N1C1C2CC3CC(C2)CC1C3` (stereo not given), the TGI with A498 renal is greater than 100 µM; in the experiment on CCRF-CEM leukemia it was 64.7 µM; in the experiment with EKVX NSCLC, greater than 100 µM; with HCT-116 colon, greater than 100 µM; in the experiment on MALME-3M melanoma, greater than 100 µM; in the experiment on OVCAR-4 ovarian, greater than 100 µM. Further, the TGI with SF-268 CNS, with SK-MEL-2 melanoma, in the experiment with SW-620 colon and in the experiment on UACC-62 melanoma was greater than 100 µM each time.
Turning to `C/C(O)=C(\N=O)C(=O)NCCc1ccccc1`, the TGI with A498 renal was greater than 100 µM; with CCRF-CEM leukemia it was greater than 100 µM; with EKVX NSCLC, greater than 100 µM; in the experiment with HCT-116 colon, greater than 70.1 µM; in the experiment with MALME-3M melanoma it was greater than 100 µM; in the experiment with OVCAR-4 ovarian it was greater than 100 µM. The TGI in the experiment with SF-268 CNS is greater than 100 µM; with SK-MEL-2 melanoma it was greater than 100 µM; in the experiment on SW-620 colon, greater than 55.2 µM; with UACC-62 melanoma it was greater than 100 µM.
Regarding `CC1=C(/C=C/C(C)=C\C=C\C(C)=C\C(=O)Nc2ccc3c(c2)OCO3)C(C)(C)CCC1`, the GI50 in the experiment with A498 renal is greater than 100 µM; with CCRF-CEM leukemia it was 22.6 µM; in the experiment on EKVX NSCLC, 62.3 µM; in the experiment on HCT-116 colon, 29.5 µM; in the experiment on MALME-3M melanoma it was 7.93 µM; in the experiment on OVCAR-4 ovarian, 21 µM. In addition, the GI50 was greater than 100 µM with SF-268 CNS, 61.6 µM in the experiment on SK-MEL-2 melanoma, greater than 100 µM in the experiment with SW-620 colon and greater than 100 µM in the experiment on UACC-62 melanoma. For the same compound, the TGI with A498 renal, in the experiment with CCRF-CEM leukemia, with EKVX NSCLC, with HCT-116 colon, in the experiment on MALME-3M melanoma and in the experiment on OVCAR-4 ovarian was greater than 100 µM in each case. Also, the TGI in the experiment with SF-268 CNS, in the experiment with SK-MEL-2 melanoma, in the experiment on SW-620 colon and in the experiment on UACC-62 melanoma was greater than 100 µM throughout.
With `Cc1c(N=Nc2ccc([N+](=O)[O-])cc2)nc2scc(-c3ccccc3)n12`, the TGI was greater than 100 µM in the experiment with A498 renal; greater than 73.4 µM in the experiment with CCRF-CEM leukemia; greater than 100 µM in the experiment on EKVX NSCLC; greater than 100 µM in the experiment on HCT-116 colon; greater than 100 µM with MALME-3M melanoma; greater than 100 µM in the experiment on OVCAR-4 ovarian. The TGI in the experiment on SF-268 CNS, in the experiment with SK-MEL-2 melanoma, in the experiment on SW-620 colon and with UACC-62 melanoma was greater than 100 µM in each case.
For `CCOc1ccc(N=Cc2cccc3cccnc23)cc1`, the TGI in the experiment with A498 renal, in the experiment on CCRF-CEM leukemia, with EKVX NSCLC, with HCT-116 colon, in the experiment with MALME-3M melanoma and in the experiment with OVCAR-4 ovarian was greater than 100 µM each time. The TGI with SF-268 CNS, in the experiment on SK-MEL-2 melanoma, in the experiment on SW-620 colon and in the experiment with UACC-62 melanoma was greater than 100 µM in each case.
Regarding `CC(CN(CP(=O)([O-])[O-])CP(=O)([O-])[O-])N(CP(=O)([O-])[O-])CP(=O)([O-])[O-].N.N.[Pt+2]` (stereo not given), the GI50 in the experiment on A498 renal, in the experiment on CCRF-CEM leukemia, in the experiment with EKVX NSCLC, with HCT-116 colon, with MALME-3M melanoma and with OVCAR-4 ovarian was greater than 100 µM in each case. Moreover, the GI50 with SF-268 CNS, in the experiment with SK-MEL-2 melanoma, with SW-620 colon and in the experiment on UACC-62 melanoma was greater than 100 µM throughout. Also, the TGI in the experiment with A498 renal, with CCRF-CEM leukemia, in the experiment with EKVX NSCLC, in the experiment with HCT-116 colon, in the experiment with MALME-3M melanoma and in the experiment with OVCAR-4 ovarian was greater than 100 µM in each case. Moreover, the TGI in the experiment on SF-268 CNS, with SK-MEL-2 melanoma, in the experiment with SW-620 colon and in the experiment on UACC-62 melanoma was greater than 100 µM each time.
For `CC1=C([Se]CC(OC(=O)CC[Se]c2ccccc2)C(=O)NCCCCCC(=O)OCc2ccccc2)C(=O)c2ccccc2C1=O` (stereo not given), the GI50 in the experiment with A498 renal is 2.25 µM; in the experiment on CCRF-CEM leukemia, 3.61 µM; in the experiment on EKVX NSCLC, 2.96 µM; in the experiment with HCT-116 colon, 2.12 µM; in the experiment with MALME-3M melanoma it was 2.31 µM; in the experiment on OVCAR-4 ovarian, 2.28 µM. The GI50 in the experiment on SF-268 CNS is 2.5 µM; in the experiment on SK-MEL-2 melanoma, 3.32 µM; with SW-620 colon, 3.28 µM; in the experiment on UACC-62 melanoma it was 1.83 µM. The TGI is 8.48 µM in the experiment on A498 renal; greater than 100 µM in the experiment with CCRF-CEM leukemia; 29.2 µM in the experiment with EKVX NSCLC; 6.53 µM in the experiment with HCT-116 colon; 5.92 µM in the experiment with MALME-3M melanoma; 6.56 µM with OVCAR-4 ovarian. For the same compound, the TGI in the experiment on SF-268 CNS was determined as 6.31 µM; in the experiment with SK-MEL-2 melanoma, 9.96 µM; with SW-620 colon, 11.6 µM; in the experiment on UACC-62 melanoma it was 4.39 µM.
Turning to `O=C1NC(=S)NC(=O)C1=Cc1cc2c(cc1[N+](=O)[O-])OCO2`, the TGI in the experiment with A498 renal, with CCRF-CEM leukemia, in the experiment with EKVX NSCLC, in the experiment with HCT-116 colon, with MALME-3M melanoma and with OVCAR-4 ovarian was greater than 100 µM each time. Also, the TGI in the experiment with SF-268 CNS, in the experiment on SK-MEL-2 melanoma, with SW-620 colon and in the experiment on UACC-62 melanoma was greater than 100 µM each time.
For the compound `O=C(/C=C/c1ccc(OCC(=O)N2CCN(c3ccccc3)CC2)cc1)c1ccc(Cl)cc1`, the TGI in the experiment on A498 renal was 60.3 µM; in the experiment with CCRF-CEM leukemia, greater than 100 µM; with EKVX NSCLC it was greater than 83.9 µM; in the experiment with HCT-116 colon, greater than 100 µM; in the experiment with MALME-3M melanoma it was greater than 100 µM; in the experiment on OVCAR-4 ovarian it was greater than 97.7 µM. Further, the TGI in the experiment with SF-268 CNS is greater than 92.7 µM; in the experiment on SK-MEL-2 melanoma, 98.3 µM; in the experiment on SW-620 colon, greater than 100 µM; with UACC-62 melanoma it was greater than 95.7 µM.
As to `C/C(=N/S(=O)(=O)c1ccc(Cl)c(Cl)c1)OCC(C)(C)C`, the TGI in the experiment with A498 renal, with CCRF-CEM leukemia, with EKVX NSCLC, in the experiment on HCT-116 colon, in the experiment with MALME-3M melanoma and in the experiment with OVCAR-4 ovarian was greater than 100 µM in each case. Besides, the TGI in the experiment on SF-268 CNS, in the experiment with SK-MEL-2 melanoma, in the experiment with SW-620 colon and in the experiment with UACC-62 melanoma was greater than 100 µM in each case.
Consider `N#CC(=S)Nc1cccc(Cl)c1`, for which the TGI with A498 renal, in the experiment on CCRF-CEM leukemia, with EKVX NSCLC, in the experiment on HCT-116 colon, in the experiment with MALME-3M melanoma and in the experiment on OVCAR-4 ovarian was greater than 100 µM in each case. Also, the TGI in the experiment on SF-268 CNS, in the experiment with SK-MEL-2 melanoma, in the experiment on SW-620 colon and in the experiment with UACC-62 melanoma was greater than 100 µM each time.
